In PubChem BioAssay (NCI):
Values joined by “and” are separate entries in the source; they are usually repeats but may differ in a detail not shown here. Identical values can stand only once.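 Five concentrations, 48 hours, 96-well plates. At the GI50, growth is halved. TGI denotes the concentration required for complete inhibition of growth.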

Experiments:
Test in all cases: NCI-60 cell line screen, 48 h
MDA-MB-468 breast = tested on: MDA-MB-468 breast
UACC-62 melanoma = tested on: UACC-62 melanoma
CCRF-CEM leukemia = tested on: CCRF-CEM leukemia
NCI-H23 lung = tested on: NCI-H23 lung
SF-539 CNS = tested on: SF-539 CNS
OVCAR-5 ovarian = tested on: OVCAR-5 ovarian
RXF 393 renal = tested on: RXF 393 renal
HCC-2998 colon = tested on: HCC-2998 colon
HS 578T breast = tested on: HS 578T breast
SF-295 CNS = tested on: SF-295 CNS
SN12C renal = tested on: SN12C renal

| SMILES | GI50 (MDA-MB-468 breast) | TGI (MDA-MB-468 breast) | other results |
| --- | --- | --- | --- |
| CCOC(=O)c1c(C)c2c(n1Cc1ccccc1)CSCC2=O | 23.3 µM | > 100 µM | – |
| Cc1cccc(NC2=C(Cl)C(=O)c3nc(C)ccc3C2=O)c1 | 1.27 µM | 2.89 µM | – |
| OC(c1cc2cc(Cl)ccc2c2cc(C(F)(F)F)ccc12)C1CCCCN1 (configuration not stated) | 1.66 µM | 3.2 µM | – |
| COc1ccc(-c2cc(=O)oc3c4c(ccc23)OCN(Cc2ccc(F)cc2)C4)cc1 | 15.7 µM | 36.3 µM | – |
| O=C(Nc1nc(-c2c[nH]c3ccccc23)cs1)c1n[nH]c(=O)c2ccccc12 | 77.9 µM | > 100 µM | – |
| NC(=O)c1cc(I)ccc1NC(=O)/C=C/c1ccccc1 | 0.732 µM | 47.1 µM | – |
| C=C(C)[C@@H]1CC[C@]2(CN)CC[C@]3(C)[C@H](CC[C@@H]4[C@@]5(C)CCCNC(C)(C)[C@@H]5CC[C@]43C)[C@@H]12 | 1.75 µM | 3.52 µM | – |
| CCN(Cc1c(F)cccc1OC)c1ccc(CO)c(Cl)c1 | 0.0285 µM | 0.144 µM | – |
| O=c1[nH]c(-c2cccc(F)c2)cc2cc(F)ccc12 | 1.89 µM | > 100 µM | – |
| CN(C)CCN1CCC(Cc2ccccc2)CC1 | > 80 µM | > 80 µM | – |
| CNCCCNc1ccnc2cc(Cl)ccc12 | 12.7 µM | 33.5 µM | – |
| O=C(Nc1ncc(Cc2cccc(C(F)(F)F)c2)s1)c1ccc2c(c1)OCCO2 | 0.251 µM | – | – |
| CCN(CCNS(C)(=O)=O)c1ccc(N)c(C)c1 | 2.11 µM | 5.64 µM | – |
| COC(=O)/C=C/c1cc(OC(C)=O)c2c(c1)C(C(=O)OC)C(c1ccc(OC(C)=O)c(OC(C)=O)c1)O2 (configuration not stated) | 1.2 µM | 17.8 µM | – |
| C[C@H](CCOc1cccc(CC(=O)O)c1)N(Cc1cccc(C(F)(F)F)c1Cl)CC(c1ccccc1)c1ccccc1 | 6.73 µM | 24 µM | – |
| Nc1c(C(=O)Nc2ccccn2)sc2nc3c(cc12)C(=O)CCC3 | 0.269 µM | 67.3 µM | – |
| COc1nc(=O)n(C2C=CC(=O)O2)cc1F (configuration not stated) | 1.93 µM | 9.1 µM | – |
| NC(N)=Nc1nc2ccccc2o1 | > 100 µM | > 100 µM | – |
| NNc1ncnc2nc[nH]c12 | 5.79 µM | > 100 µM | – |
| COc1ccc(CNc2c3ccccc3nc3ccccc23)cc1F | 1.86 µM | 4.81 µM | – |
| Brc1ccc(/C=C/c2n(Cc3ccc4ccccc4c3)c3ccccc3[n+]2Cc2ccc3ccccc3c2)cc1 | 1.34 µM | 2.73 µM | GI50 (UACC-62 melanoma): 1.53 µM; TGI (UACC-62 melanoma): 2.9 µM; GI50 (CCRF-CEM leukemia): 0.519 µM; TGI (CCRF-CEM leukemia): > 100 µM; GI50 (NCI-H23 lung): 1.33 µM; TGI (NCI-H23 lung): 2.68 µM; GI50 (SF-539 CNS): 1.67 µM; TGI (SF-539 CNS): 3.04 µM; GI50 (OVCAR-5 ovarian): 1.35 µM; TGI (OVCAR-5 ovarian): 2.66 µM; GI50 (RXF 393 renal): 1.35 µM; TGI (RXF 393 renal): 2.64 µM; GI50 (HCC-2998 colon): 1.49 µM; TGI (HCC-2998 colon): 2.83 µM; GI50 (HS 578T breast): 1.48 µM; TGI (HS 578T breast): 3.87 µM; GI50 (SF-295 CNS): 1.4 µM; TGI (SF-295 CNS): 2.73 µM; GI50 (SN12C renal): 1.64 µM; TGI (SN12C renal): 3.03 µM |
| Nc1nc(Cl)nc2c1ncn2C1CC(O)C(CO)O1 (configuration not stated) | 56.6 µM | > 100 µM | – |
| C=CC12CCN(CC1)C(C(O)c1ccnc3ccc(OC)cc13)C2 (configuration not stated) | 57.4 µM | > 100 µM | – |
| CCn1cc(-c2ccnc3[nH]c(-c4cccc(CN(C)C)c4)cc23)c(-c2ccc(NC(=O)N(C)C)cc2)n1 | 0.0504 µM and 0.282 µM | 16.7 µM and > 10 µM | – |
| COc1ccc(/C=C\c2cc(OC)c(OC)c(OC)c2)cc1OCC(=O)O | 49.3 µM | > 100 µM | – |
| COc1cc(/C=C2\CCCCC3=C2N=C2SC(C)=CN2C3c2cc(OC)c(OC)c(OC)c2)cc(OC)c1OC (configuration not stated) | 0.185 µM | > 100 µM | – |
| CCCCCCn1c(-c2ccc(C(=O)O/N=C(\N)c3ccc4c(c3)OCO4)cc2)nc(-c2ccccc2)c1-c1ccccc1 | 2.11 µM | 5.62 µM | – |
| CC[C@]1(O)C[C@H]2CN(CCc3c([nH]c4ccccc34)C(C(=O)OC)(c3cc4c(cc3OC)N(C)[C@H]3[C@@](O)(C(=O)OC)[C@H](OC(C)=O)[C@]5(CC)[C@@H]6C[C@@H]6CN6CC[C@]43[C@@H]65)C2)C1 (some centres not stated) | 0.00285 µM | 0.00917 µM | – |
| N#CC(I)CS(=O)(=O)c1ccccc1 (configuration not stated) | 3.55 µM | 14.1 µM | – |
